In one experiment the test system is SHR. Put plainly: Role of NO in the MAP response to constant Tempol infusion (L-NAME or norepinephrine pretreatment). In kind it is in vivo, rat.
The next experiment relates to SHR and WKY rats. In words: Maximal TGF responses during retrograde microperfusion of Tempol into the macula densa/JGA (Series 6). In kind it is in vivo, rat. The following applies: for Percentage reduction in TGF normalized to the initial response: Tempol 10^−3 M retrograde; for PSF difference 0-40 nl·min^−1 (maximal TGF response) / PSF during LH perfusion at 0 nl·min^−1 / PSF during LH perfusion at 40 nl·min^−1: retrograde perfusion, ATF+Tempol 10^−3 M, mean ± SEM. Here is the method: Series 4. Effects of inhibition of bNOS on maximal TGF responses in SHR and WKY. These experiments further examined the SHR hypertension model and whether the enhanced TGF of the SHR kidney is due to a blunted generation of NO by bNOS in the macula densa or whether NOS inhibition is diminished in the SHR model. Groups of SHR and age-matched WKY rats were prepared for in vivo micropuncture, microperfusion, and TGF studies as described in detail previously. In brief, animals were anesthetized with thiobarbital (Inactin, 100 mg·kg^−1; Research Biochemicals, Inc., Natick, Mass.). A catheter was placed in a jugular vein for fluid infusion and in a femoral artery for recording of mean arterial pressure (MAP) from the electrically damped output of a pressure transducer (Statham, Inc.). A tracheotomy tube was inserted and the animals were allowed to breathe spontaneously. The left kidney was exposed by a flank incision, cleaned of connective tissue, and stabilized in a Lucite cup. This kidney was bathed in 0.154 M NaCl maintained at 37° C. After completion of surgery, rats were infused with a solution of 0.154 M NaCl and 1% albumin at 1.5 ml·h^−1 to maintain a euvolemic state. Micropuncture studies were begun after 60 min for stabilization.
For orthograde microperfusion of the loop of Henle (LH), a micropipette (8 μm OD) containing artificial tubular fluid (ATF) stained with FD&C dye was inserted into a late proximal tubule. Injections of the colored ATF identified the nephron and the direction of flow. An immobile bone wax block was inserted into this micropuncture site via a micropipette (10-15 μm) and connected to a hydraulic drive (Trent Wells, Inc., LaJolla, Calif.) to halt tubular fluid flow. A perfusion micropipette (6-8 μm) containing ATF and test compounds or vehicle was inserted into the proximal tubule downstream from the wax block and connected to a nanoliter perfusion pump (WPI, Sarasota, Fla.). A pressure micropipette (1-2 μm) was inserted into the proximal tubule upstream from the wax block to measure proximal stop flow pressure (PSF). Changes in PSF are an index of changes in glomerular capillary hydraulic pressure (PGC). Measurements of PSF were made in each nephron during zero loop perfusion and during perfusion with ATF at 40 nl·min^−1, which produces a maximal TGF response, defined as the difference between PSF values recorded during perfusion of the loop with ATF at 0 and 40 nl·min^−1.
Groups of SHR (n=5) and WKY rats (n=5) were prepared for studies of retrograde microperfusion into the macula densa. […] Therefore, these studies of TGF were conducted with retrograde microperfusion from the early distal (ED) tubule into the macula densa. After identifying the nephron with FD&C green, the last proximal convolution was vented and a wax block placed upstream. A micropipette (8-10 μm OD) was inserted into the ED tubule upstream from an oil droplet. The loop of Henle was perfused retrogradely with perfusate entering the macula densa segment directly at 0 and 20 nl·min^−1. This represents a maximal activation for TGF by retrograde perfusion. […] Therefore, this dose was used thereafter in the test animals (Dosage/kg would usually be lower in larger animals). Comparisons were made of maximum TGF responses obtained during perfusion of ATF+vehicle (ethanol) and ATF+Tempol.

The structures appear in SMILES notation.

With `CC1(C)CC(O)CC(C)(C)N1[O]` [Tempol, 4-hydroxy-2,2,6,6-tetramethyl-1-piperidinyloxy], the “Decrease in MAP” value with SHR (SHR infused with norepinephrine, Tempol infusion) is 14%. Moreover, the “MAP during Tempol infusion” value in the experiment on SHR (SHR infused with norepinephrine, Tempol infusion, P<0.05) came to 161±7 mm Hg. Moreover, the “MAP during Tempol infusion” value in the experiment with SHR (SHR pretreated with L-NAME, Tempol infusion 30 minutes, unchanged) stood at 186±4 mm Hg. In addition, the MAP in the experiment on SHR (SHR, saline vehicle pretreatment, Tempol infusion 180 μmol·kg^−1·min^−1 (so in the source) for 30 minutes) is 121±17 mm Hg. In addition, the “Decrease in MAP” value in the experiment with SHR (SHR, saline vehicle pretreatment, Tempol infusion for 30 minutes, P<0.05) was determined as 32%. Moreover, in the experiment with SHR and WKY rats (SHR), the “Percentage reduction in TGF normalized to the initial response” value is listed as −26±2%, the “PSF difference 0-40 nl·min^−1 (maximal TGF response)” value is 8.5 ± 0.8 mm Hg, the “PSF during LH perfusion at 0 nl·min^−1” value is reported as 40.8 ± 0.8 mm Hg and the “PSF during LH perfusion at 40 nl·min^−1” value is reported as 32.1 ± 0.9 mm Hg. Moreover, in the experiment with SHR and WKY rats (WKY), the “Percentage reduction in TGF normalized to the initial response” value is −17±3%, the “PSF difference 0-40 nl·min^−1 (maximal TGF response)” value worked out at 6.7 ± 0.4 mm Hg, the “PSF during LH perfusion at 0 nl·min^−1” value is listed as 34.7 ± 0.8 mm Hg and the “PSF during LH perfusion at 40 nl·min^−1” value was determined as 28.0 ± 0.9 mm Hg. Also, the “Maximally effective dose (preliminary studies, effects reversible)” value with SHR and WKY rats (retrograde microperfusion into the macula densa) is recorded as 10^−3 M.

(Values after US6617337B1, “Use of nitroxides for the treatment of essential hypertension” (Georgetown University, priority 1997, dated 2003).)
